{"source": "patent US7977375B2", "about": "“Antibiotic and method of production thereof” (Helmholtz-Zentrum Für Infektionsforschung GmbH, priority 2004, dated 2011)", "key": {"[1]": {"system": "Candida parapsilosis DSM5784", "test": "MIC / MBC in liquid culture", "assay_type": "cell-based", "details": "Lodderomyces parapsilosis, read-out: MIC (minimal inhibitory concentration)"}, "Candida krusei DSM 6128": {"system": "Candida krusei DSM 6128", "test": "MIC / MBC in liquid culture", "assay_type": "cell-based", "details": "Pichia kudriavzevii, DSM6128, read-out: MIC (minimal inhibitory concentration)"}, "[2]": {"system": "Candida albicans DSM 11225", "test": "MIC / MBC in liquid culture", "assay_type": "cell-based", "details": "DSM11225, read-out: MIC (minimal inhibitory concentration)"}, "bacteria": {"system": "bacteria", "details": "state of the art; cited from earlier work"}, "[3]": {"details": "state of the art; cited from earlier work"}, "HIV": {"system": "HIV", "details": "state of the art; cited from earlier work"}, "E. faecium VRAR E315": {"system": "E. faecium VRAR E315", "test": "agar diffusion method, inhibition zone", "assay_type": "cell-based, Enterococcus faecium", "details": "E. faecium VRAR E315; MH agar, 18 hours at 37° C.; per disk 10 μl crude extract, 50 μg macrolactin, 78 μg erythromycin, 30 μg vancomycin, 10 μg ampicillin", "protocol": "(§1) The agar diffusion method employing Mueller-Hinton (MH) agar (Difco Laboratories) was used to determine effectiveness against bacteria and yeasts. Sterile paper disks (Schleicher & Schüell, Germany) were seeded with 10 μl crude extract or with a solution of purified macrolactin (final compound concentration on the disk 50 μg) and then placed on the surface of MH-agar plates that had been seeded beforehand with a suspension of overnight culture of the test microorganisms at a concentration of 10^5 cells/ml."}, "E. faecalis VRAS E305": {"system": "E. faecalis VRAS E305", "test": "agar diffusion method, inhibition zone", "assay_type": "cell-based, Enterococcus faecalis", "details": "E. faecalis VRAS E305; MH agar, 18 hours at 37° C.; per disk 10 μl crude extract, 50 μg macrolactin, 78 μg erythromycin, 30 μg vancomycin, 10 μg ampicillin", "protocol": "as §1"}, "E. faecalis ATCC 29212": {"system": "E. faecalis ATCC 29212", "test": "agar diffusion method, inhibition zone", "assay_type": "cell-based, Enterococcus faecalis", "details": "E. faecalis ATCC 29212; MH agar, 18 hours at 37° C.; per disk 10 μl crude extract, 50 μg macrolactin, 78 μg erythromycin, 30 μg vancomycin, 10 μg ampicillin", "protocol": "as §1"}, "B. cepacia SCV 141": {"system": "B. cepacia SCV 141", "test": "agar diffusion method, inhibition zone", "assay_type": "cell-based, Burkholderia cepacia", "details": "MH agar, 18 hours at 37° C., per disk 10 μl crude extract, 50 μg macrolactin, 78 μg erythromycin, 10 μg ampicillin", "protocol": "as §1\nThe B. cepacia strain used, which is a clinical isolate from a cystic fibrosis patient, forms small colonies (SCV 141)."}, "[4]": {"system": "L929 mouse fibroblast cells", "test": "inhibition of proliferation, CyQUANT cell proliferation test", "assay_type": "cell-based", "details": "5 days", "protocol": "The cytotoxicity of 7-O-malonyl macrolactin A was compared to that of 7-O-succinyl macrolactin A and macrolactin A in vitro with respect to the inhibition of the proliferation of L929 mouse fibroblast cells or the human epithelial cell line HeLa.\nFor the cell culture, the HeLa cells were cultivated in low-glucose DMEM medium (Gibco), and the L929 cells in high-glucose DMEM medium. Both were supplemented with 10% by volume foetal calf serum (Gibco) at 37° C. in an atmosphere containing 5% CO2. The cells were extracted from stock cultures by means of trypsinization with EDTA (HeLa) or without EDTA (L929), then counted and diluted to 2×10^5 cells/ml. For the tests, microtitre plates (Nunc.) comprising 96 depressions were plated out in serial dilution without or in the presence of the test compounds or methanol. Determination of morphological alterations of the cells was carried out by means of phase contrast microscopy after 1, 2 and 5 days incubation.\nAfter 5 days cultivation, cell counts were determined by the CyQUANT cell proliferation test (Molecular Probes), which is a highly sensitive microtitre plate test based on fluorescence. The test employs the dye CyQUANT, which, by binding to cellular nucleic acids, enhances fluorescence, which can then be measured by fluorescein excitation. The emission of fluorescence by the dye-nucleic acid complex correlated linearly with the cell count. For test purposes, the residue was carefully removed after 5 days incubation, the cells washed with PBS (phosphate buffered saline solution), the buffer removed and the cells frozen at −80° C. For the test, the cells were thawed at ambient temperature and lysated in a buffered solution containing the dye CyQUANT, in accordance with manufacturer's instructions. Fluorescence was measured by means of a fluormetric microtitre-plate reader (Titertex Fluorskan II) (excitation at 480 nm, emission at 520 nm). The […] were used to calculate the percentage of cellular proliferation in medium both alone and in the presence of serial dilutions of methanol and the macrolactin compounds. […] Proliferation was measured by means of the fluorescence-based test CyQUANT for determining viable cell counts. Table 5 illustrates the relative inhibition of proliferation as compared to a control culture comprising fresh medium without the addition of a macrolactin."}, "[5]": {"system": "MRSA 3 (methicillin-resistant S. aureus, clinical isolate)", "test": "agar diffusion method, inhibition zone", "assay_type": "cell-based, Staphylococcus aureus", "details": "MRSA 3; MH agar, 18 hours at 37° C.; per disk 10 μl crude extract, 50 μg macrolactin, 78 μg erythromycin, 30 μg vancomycin, 10 μg ampicillin", "protocol": "as §1"}, "[6]": {"system": "S. aureus # (own collection, methicillin-sensitive control strain)", "test": "agar diffusion method, inhibition zone", "assay_type": "cell-based, Staphylococcus aureus", "details": "S. aureus # own collection; MH agar, 18 hours at 37° C.; per disk 10 μl crude extract, 50 μg macrolactin, 78 μg erythromycin, 30 μg vancomycin, 10 μg ampicillin", "protocol": "as §1"}, "[7]": {"system": "MRSA 2 (methicillin-resistant S. aureus, clinical isolate)", "test": "agar diffusion method, inhibition zone", "assay_type": "cell-based, Staphylococcus aureus", "details": "MRSA 2; MH agar, 18 hours at 37° C.; per disk 10 μl crude extract, 50 μg macrolactin, 78 μg erythromycin, 30 μg vancomycin, 10 μg ampicillin", "protocol": "as §1"}, "S. aureus DSMZ 1104": {"system": "S. aureus DSMZ 1104", "test": "agar diffusion method, inhibition zone", "assay_type": "cell-based, Staphylococcus aureus", "details": "S. aureus DSMZ 1104; MH agar, 18 hours at 37° C.; per disk 10 μl crude extract, 50 μg macrolactin, 78 μg erythromycin, 30 μg vancomycin, 10 μg ampicillin", "protocol": "as §1"}, "[8]": {"details": "JP 9301970; cited from earlier work"}}}
{"compound": "Clc1ccc(COC(Cn2ccnc2)c2ccc(Cl)cc2Cl)c(Cl)c1", "note": "(stereo not drawn) [MCZ, miconazol]", "values": [{"measurement": "MIC", "setting": "[1]", "value": 2, "unit": "µg/mL"}, {"measurement": "MIC", "setting": "Candida krusei DSM 6128", "value": 2, "unit": "µg/mL"}, {"measurement": "MIC", "setting": "[2]", "value": 2, "unit": "µg/mL"}]}
{"compound": "C[C@@H]1CCC/C=C/C=C/C(O)CC(O)C/C=C\\C=C\\C(O)C/C=C/C=C\\C(=O)O1", "note": "(stereo partly drawn) [Macrolactin A, 8, 14, 16-trihydroxy-24(R)-methyl-oxacyclotetracosa-3(Z), 5(B), 9(E), 11(Z), 17(E), 19(E)-hexaen-2-on]", "values": [{"measurement": "antibacterial activity", "setting": "bacteria", "value": "relatively weak"}, {"measurement": "cytotoxicity", "setting": "[3]", "value": "cytotoxic"}, {"measurement": "antiviral activity", "setting": "HIV", "value": "active against HIV"}, {"measurement": "Inhibition zone", "setting": "E. faecium VRAR E315", "value": 0, "unit": "mm"}, {"measurement": "Inhibition zone", "setting": "E. faecalis VRAS E305", "value": 0, "unit": "mm"}, {"measurement": "Inhibition zone", "setting": "E. faecalis ATCC 29212", "value": 0, "unit": "mm"}, {"measurement": "Inhibition zone", "setting": "B. cepacia SCV 141", "value": 0, "unit": "mm"}, {"measurement": "Inhibition of proliferation", "setting": "[4]; compound concentration 3.9 μg/ml", "value": 23, "unit": "%"}, {"measurement": "Inhibition of proliferation", "setting": "[4]; compound concentration 7.8 μg/ml", "value": 29, "unit": "%"}, {"measurement": "Inhibition of proliferation", "setting": "[4]; compound concentration 15.6 μg/ml", "value": 38, "unit": "%"}, {"measurement": "Inhibition of proliferation", "setting": "[4]; compound concentration 31.25 μg/ml", "value": 81, "unit": "%"}, {"measurement": "Inhibition of proliferation", "setting": "[4]; compound concentration 56.5 μg/ml", "value": 83, "unit": "%"}, {"measurement": "Inhibition of proliferation", "setting": "[4]; compound concentration 125 μg/ml", "value": 83, "unit": "%"}, {"measurement": "Inhibition zone", "setting": "[5]", "value": 35, "unit": "mm"}, {"measurement": "Inhibition zone", "setting": "[6]", "value": 25, "unit": "mm"}, {"measurement": "Inhibition zone", "setting": "[7]", "value": 27, "unit": "mm"}, {"measurement": "Inhibition zone", "setting": "S. aureus DSMZ 1104", "value": 18, "unit": "mm"}]}
{"compound": "macrolactin M", "values": [{"measurement": "antimicrobial activity", "setting": "[8]", "value": "antimicrobially active"}]}
